Test results taken from US7892833B2, “Using inhibitors of histone deacetylases for the suppression therapy of inherited disease predisposing conditions” (TopoTarget Germany AG, priority 2003, dated 2011).
“Also recorded” adds a separate entry of the source.

Experiments:
[1] = test system: Peripheral blood lymphocytes (PBL's); assay: Cytokine mRNA by semiquantitative RT-PCR in PMA/Ion-stimulated PBLs; type: cell-based, human; settings: for modulation of cytokine expression: PMA/Ion, FIGS. 4A and B; for IL-6 mRNA / PMA/Ion mediated stimulation of IL-4 mRNA: 2 h preincubation, PMA/Ion 24 h
Description: (§1) Monocyte and macrophage depleted peripheral blood mononuclear cells were obtained from consenting adults via separation using Ficoll-Hypaque. The peripheral blood mononuclear cells (PBMC) fraction was washed and seeded in 9 cm petri dishes. After an incubation of 2 hours at 37° C. to remove most of the monocytes, macrophages, and B-cells, the non-adherent cells were collected and cultured in 175cm^2 flasks for 2 days. Cells were harvested and adjusted to 3 million cells per ml. Aliquots of 500μl were transferred to each well of 24-well flat bottom plates. Peripheral blood lymphocytes (PBL's) were treated with various concentrations of HDAC inhibitors as indicated. After a 2 hour incubation time at 37°C cells were stimulated with phorbol 12-myristate 13-acetate (PMA) / ionomycin (Ion) or activated via T cell receptor (TCR/CD3) complex with 10μg/m1 anti-CD3 mAb (OKT3) and 2.5μg/ml anti-CD28 mAb. After 24 hours at 37° C. the supernatant was removed and frozen for cytokine assays. Cell pellets were lysed and total RNA was isolated using the RNeasy mini kit from Qiagen.
(§2) One microgram of total RNA was transcribed to cDNA by standard methods using reverse transcriptase and an oligo-dT primer (Invitrogen). For semiquantitative PCR, 2 μl of cDNA was amplified by PCR using specific primers. Primers for PCR were synthesized by MWG and are as follows: […]

[2] = test system: TNF-α; assay: TNF-α ELISA of PBL supernatants; type: cell-based, human; settings: for TNF-α secretion, dose-response / concentration of maximal inhibition of TNF-α expression: PBLs, FIG. 6; for TNF-α secretion, dose-response: 2 h preincubation, CD3 and CD28 mAbs 24 h; for concentration of maximal inhibition of TNF-α expression: CD3/CD28
Description: as §1
(§3) To perform ELISA's, supernatants of treated and untreated PBL's were collected and IL-2 as well as TNF-α were measured using the Duo Set ELISA Development System (R&D Systems) as described by the manufacturer.

[3] = test system: IL-2; assay: IL-2 ELISA of PBL supernatants; type: cell-based, human; settings: for IL-2 secretion, dose-response / concentration of maximal inhibition of IL-2 expression: PBLs; for IL-2 secretion, dose-response: 2 h preincubation, CD3 and CD28 mAbs 24 h; for IL-2 secretion, dose-response / concentration of maximal inhibition of IL-2 expression / secretion of IL-2: FIG. 6; for concentration of maximal inhibition of IL-2 expression / secretion of IL-2: CD3/CD28
Description: as §1, §3

[4] = test system: C57BL/6J-APC^min mice; assay: APC^min mouse model, adenoma count after four weeks of treatment; type: in vivo
Description: Ten to sixteen weeks old age- and sex-matched heterozygous C57BL/6J-APC^min mice (Jackson Laboratories, Bar Harbor, Me.) were either left untreated or were treated with 2-PPA or Celecoxib. Control animal were injected (i.p.) with PBS. 2-PPA was injected as isotonic aequous solution of the sodium salt (2×400 mg/kg/day) for four weeks, while Celecoxib was fed to the animals ad libidum at 1250 ppm (0, 12%) for four weeks. At necropsy entire intestinal tracts were opened longitudinally and fixed in 10% phosphate buffered formaldehyde for 24 h. Polyp contrast was increased performing a 1 min staining in 0.1% methylene blue prior to determination of polyp numbers and sizes under a dissecting microscope by two independent observers unaware of the treatment that the mice had received.

[5] = test system: acute promyelocytic leukemia; settings: PML-RAR patient with multiple relapses after retinoic acid; Warrell et al., 1998; cited from earlier work
[6] = test system: stage III/IV non-small cell lung cancer; settings: monotherapy; Keer et al., 2002; cited from earlier work
[7] = test system: PPARδ; settings: cited from earlier work
[8] = test system: Human immortalized keratinocytes (HaCaT cells); assay: Cytokine mRNA by semiquantitative RT-PCR in LPS-stimulated keratinocytes; type: cell-based; settings: 4 h preincubation (200 nM TSA or 5 mM 2PPA), LPS 24 h; for level of IL-6 mRNA / level of TNF-α mRNA: vs. untreated stimulated control
Description: Human immortalized keratinocytes (HaCaT cells) were seeded at a density of 2.5 million cells per ml into 75 cm^2 flasks. […] After 24 hours at 37° C. cells were lysed and total RNA was isolated using the RNeasy mini kit from Qiagen.
as §2

[9] = test system: Peripheral blood cells; assay: Cytokine ELISA and RT-PCR in peripheral blood cells from a patient treated with 2PPA; type: in vivo, human
Description: The cells were either left unstimulated or stimulated with CD3 and CD28 antibodies. After 24 hours at 37° C. the supernatant was collected and the secretion of IL-2 and TNF-α was quantified by ELISA (R&D Systems) (FIGS. 10A and B).
Total RNA from unstimulated and CD3/CD28 stimulated cells was isolated using the RNeasy mini kit (Qiagen). One microgram of total RNA was converted to cDNA by standard methods using reverse transcriptase and an oligo-dT primer (Invitrogen). For semiquantitative PCR, 2 μl of cDNA were amplified by PCR using the specific primers as described above (FIG. 10C).

[10] = test system: Acetylated histones H3 and H4 and the marker gene HDAC-2; assay: Western blot of peripheral blood cells from patients treated with 2PPA (phase I/II); type: in vivo, human; settings: 2PPA intravenously, before, 6 h, 24 h, 48 h
Description: Whole cell extracts were prepared by lysis of cells in RIPA buffer including protease inhibitors. Lysates were separated by SDS gel electrophoresis and transferred onto PVDF membranes. Acetylated histones H3 and H4 and the marker gene HDAC-2 were detected by western blot analysis using an anti-acetylated H3 antibody (Upstate, #06-942), an anti-acetylated H4 antibody (clon T25; patent application EP 02.021984.6), and an anti-HDAC-2 antibody (SCBT, SC-7899). As an equal loading control PVDF membranes were stained with Coomassie (FIG. 9).

[11] = test system: cell lines with proven mutations of crucial genes; assay: Cell viability assay (MTT test); type: cell-based; settings: 0.5 to 3 mM, 40 h to 70 h, all the cell lines tested, vs. untreated cells
Description: In FIG. 1 cell lines are listed with proven mutations of crucial genes which in an inherited way establish a condition that predisposes a person to develop a disorder. The cells were grown in the respective medium as described in FIG. 1.
The cell lines listed in table 1 were seeded in 96 well plates at a density of 1×10^4 cells/well in normal growth medium. 2-propyl pentanoic acid was added at final concentrations between 0.5 and 3 mM to triplicate samples and the cells were incubated for 40 h to 70 h. Control cells were grown in the absence of 2-propyl pentanoic acid. Ten μl of 10 mg/ml 3-(4,5-dimethylthiazole-2-yl)-2,5 diphenyltetrazolium bromide (MTT) (Sigma, Deisenhofen, Germany) in PBS were added to each well and the cells were incubated for another 3 h. Cells were lysed by the addition of 90 μl of lysis buffer (20% SDS in 50% dimethyl formamide, pH 4.7). After solubilization of the formazan product, the absorption at 590 nm was determined in a microplate reader (Dynatech, Denkendorf, Germany) and the relative amount of viable cells in comparison to cells grown without the addition of 2-propyl pentanoic acid was determined.

[12] = EP application No. 03014278.0; cited from earlier work
[13] = starting at 24 hours of 2PPA treatment
[14] = 1 mM, other experiments, PMA/ION and CD3/CD28, FIG. 7

O=C(/C=C/C1CCCCC1)NO [G2M-707]
modulation of cytokine expression [1]: can modulate cytokine expression
TNF-α secretion, dose-response [2]: dose-dependent inhibition
concentration of maximal inhibition of TNF-α expression [2]: 1 µM
IL-2 secretion, dose-response [3]: dose-dependent inhibition
concentration of maximal inhibition of IL-2 expression [3]: 1 µM

Cc1ccc(-c2cc(C(F)(F)F)nn2-c2ccc(S(N)(=O)=O)cc2)cc1 [Celecoxib]
abnormalities in the gastrointestinal tract ([4]; APC^min mice after four weeks of treatment, FIG. 2B): intensely inflated stomach, small intestine, and colon

phenylbutyrate
clinical outcome [5]: complete remission of the leukemia

CCCC(=O)OCOC(=O)C(C)(C)C [Pivanex, Pivaloyloxymethyl butyrate]
clinical activity [6]: activity in stage III/IV non-small cell lung cancer

O=C(CCC1CCCC1)NO [G2M-701]
modulation of cytokine expression [1]: can modulate cytokine expression
TNF-α secretion, dose-response [2]: dose-dependent inhibition
concentration of maximal inhibition of TNF-α expression [2]: 6 µM
IL-2 secretion, dose-response [3]: dose-dependent inhibition
concentration of maximal inhibition of IL-2 expression [3]: 6 µM

CC(/C=C/C(=O)NO)=C\[C@@H](C)C(=O)c1ccc(N(C)C)cc1 [TSA, Trichostatin A]
IL-6 mRNA [1]: only moderate effects
PMA/Ion mediated stimulation of IL-4 mRNA [1]: significantly reduced
activation of PPARδ [7]: activates PPARδ
mRNA transcript of IFN-γ [8]: virtually unaffected
level of IL-6 mRNA [8]: significant decrease
level of TNF-α mRNA [8]: significant decrease

O=C(CCC1CCCCC1)NO [G2M-702]
modulation of cytokine expression [1]: can modulate cytokine expression
TNF-α secretion, dose-response [2]: dose-dependent inhibition
concentration of maximal inhibition of TNF-α expression [2]: 3 µM
IL-2 secretion, dose-response [3]: dose-dependent inhibition
concentration of maximal inhibition of IL-2 expression [3]: 3 µM

CCCC(CCC)C(=O)O [2PPA, 2-propyl-pentanoic acid]
IL-6 mRNA [1]: decreased IL-6 mRNA back to the level seen in the unstimulated sample
PMA/Ion mediated stimulation of IL-4 mRNA [1]: significantly reduced
IL-2 mRNA transcripts ([9]; CD3/CD28 stimulated): decrease
TNF-α mRNA transcripts ([9]; CD3/CD28 stimulated): decrease
IL-2 in the culture supernatant (ELISA) ([9]; CD3/CD28 stimulated 24 h): modulates the expression
TNF-α in the culture supernatant (ELISA) ([9]; CD3/CD28 stimulated 24 h): modulates the expression
cytokine mRNA expression of IFN-γ [9, 13]: significantly reduced
cytokine mRNA expression of IL-4 [9, 13]: significantly reduced
Histone H3 and H4 acetylation in peripheral blood cells [10]: Histone H3 and H4 hyperacetylation
marker protein HDAC-2 in peripheral blood cells [10]: down-regulation of the marker protein HDAC-2
TNF-α secretion [2, 14]: significant decrease
TNF-α secretion, dose-response [2]: dose-dependent inhibition
secretion of IL-2 ([3]; 0.5 mM): only moderate effect
secretion of IL-2 ([3]; 1 mM): only moderate effect
IL-2 secretion [3, 14]: significant decrease
secretion of IL-2 ([3]; 5 mM): significantly reduced
IL-2 secretion, dose-response [3]: dose-dependent inhibition
mRNA transcript of IFN-γ [8]: significantly reduced
level of IL-6 mRNA [8]: significant decrease
level of TNF-α mRNA [8]: significant decrease
inhibition of cell viability [11]: 20-80%
skin permeation [12]: permeates human skin effectively
number of colorectal adenomas ([4]; APC^min mice treated for 4 weeks, FIG. 2 legend): reduction in the number of colorectal adenomas
number of adenomas in the small intestine ([4]; four weeks, 2-PPA sodium salt i.p. 2×400 mg/kg/day, Celecoxib 1250 ppm in feed, FIG. 2A, 400 mg/kg/day): reduces adenoma formation; also recorded: clearly reduces the number of adenomas
abnormalities in the gastrointestinal tract ([4]; mouse, in vivo): did not show any abnormalities in the gastrointestinal tract

O=C(CCCCCCC(=O)Nc1ccccc1)NO [SAHA, suberoylanilide hydroxamic acid]
modulation of cytokine expression [1]: can modulate cytokine expression
